Experimental data as given in publication PMC7069944, “Amino acid levels determine metabolism and CYP450 function of hepatocytes and hepatoma cell lines” (Nature Communications, 2020).
“And” between values parts separate entries of the source, which are not always exact repeats. Equal values may be shown once.

Key:
HC3X = experiment: Repeated-exposure DILI training compounds, resazurin conversion, HC3X; conditions: for resazurin conversion (Supplementary Figure 7D): HC3X AAGLY D40, replicates, listed as Triglitazone
Procedure, shortened: (§1)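 PSC-derived hepatocyte-like cells were differentiated in 384-well plates, and drugs were added after 8 h of attachment. Viability was measured by resazurin conversion and related to therapeutic Cmax values, with untreated wells as negative control.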

HC6X = experiment: Repeated-exposure DILI training compounds, resazurin conversion, HC6X; conditions: replicates, listed as Triglitazone
Procedure, shortened: as §1

HepG2 = experiment: Repeated-exposure DILI training compounds, resazurin conversion, HepG2; conditions: replicates, listed as Triglitazone
Procedure, shortened: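 Viability by resazurin conversion, correlated with Cmax, was assessed after drug exposure in 384-well cultures of differentiated PSCs and of HepG2 (40,000 cells/well). Dosing began 8 h post-attachment, with untreated wells as negative control.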

HLC = experiment: Repeated-exposure DILI training compounds, resazurin conversion, HLC; conditions: replicates, listed as Triglitazone
Procedure, shortened: as §1

Cc1c(C)c2c(c(C)c1O)CCC(C)(COc1ccc(CC3SC(=O)NC3=O)cc1)O2 (centres unmarked) [troglitazone]
resazurin conversion (Supplementary Figure 7D) (HC3X; 3 uM): 100.4 and 118.6 and 117.6 and 139.7 and 113 and 95.6
resazurin conversion (Supplementary Figure 7D) (HC3X; 5 uM): 108.1 and 113 and 110 and 124 and 122.3 and 125.6
resazurin conversion (Supplementary Figure 7D) (HC3X; 10 uM): 64.3 and 64.1 and 94.3 and 59.1 and 78.4 and 71.8
resazurin conversion (Supplementary Figure 7D) (HC3X; 30 uM): 7.7 (3×) and 7.6 (2×) and 7.8
resazurin conversion (Supplementary Figure 7D) (HC3X; 50 uM): 7.8 (4×) and 7.7 and 7.9
resazurin conversion (Supplementary Figure 7D) (HC3X; 100 uM): 7.7 and 7.9 (2×) and 8 (2×) and 7.8
resazurin conversion (Supplementary Figure 7D) (HC3X; 300 uM): 8.6 (2×) and 8.5 and 8.4 and 8.7 and 8.3
resazurin conversion (Supplementary Figure 7D) (HC3X; 600 uM): 8.6 and 9 and 8.5 and 8.7 and 8.8 and 9.1
resazurin conversion (Supplementary Figure 7D) (HC3X; 1200 uM): 8.5 and 8.9 and 8.6 (2×) and 8.8 and 9
IC50/Cmax (HC3X; human): 1.6
resazurin conversion (Supplementary Figure 7D) (HC6X; HC6X AAGLY D40, 3 uM): 67.6 and 80.5 and 115.9 and 110.8
resazurin conversion (Supplementary Figure 7D) (HC6X; HC6X AAGLY D40, 5 uM): 97.5 and 124.6 and 75.2 and 88 and 91.2 and 78.9
resazurin conversion (Supplementary Figure 7D) (HC6X; HC6X AAGLY D40, 10 uM): 28.6 and 26.8 and 51 and 28.8 and 31.8 and 23.3
resazurin conversion (Supplementary Figure 7D) (HC6X; HC6X AAGLY D40, 30 uM): 17.6 and 19.6 and 21.9 and 19.3 and 17.4 and 18.4
resazurin conversion (Supplementary Figure 7D) (HC6X; HC6X AAGLY D40, 50 uM): 18.5 and 22.2 and 22.6 and 19.7 and 17.5 and 18.3
resazurin conversion (Supplementary Figure 7D) (HC6X; HC6X AAGLY D40, 100 uM): 17.7 (2×) and 19.3 and 19.5 and 17.5 and 18.3
resazurin conversion (Supplementary Figure 7D) (HC6X; HC6X AAGLY D40, 300 uM): 18.9 and 19.1 and 19.4 (2×) and 19.9 and 18.8
resazurin conversion (Supplementary Figure 7D) (HC6X; HC6X AAGLY D40, 600 uM): 20.5 and 21.3 and 23.4 and 22.4 (2×) and 23.3
resazurin conversion (Supplementary Figure 7D) (HC6X; HC6X AAGLY D40, 1200 uM): 19.6 and 19.4 and 20.1 and 19.9 and 18.6 and 18.9
resazurin conversion (Supplementary Figure 7D) (HC6X; HC6X AAGLY D40 Remove dox, 5 uM): 197.5 and 139.5 and 221.6 and 148.2 and 134.8 and 149.8
resazurin conversion (Supplementary Figure 7D) (HC6X; HC6X AAGLY D40 Remove dox, 10 uM): 133 and 100.2 and 218.5 and 104.9 and 119 and 93.7
resazurin conversion (Supplementary Figure 7D) (HC6X; HC6X AAGLY D40 Remove dox, 30 uM): 24.4 and 26.5 and 25.9 (2×) and 27.1 and 24.9
resazurin conversion (Supplementary Figure 7D) (HC6X; HC6X AAGLY D40 Remove dox, 50 uM): 23.5 (2×) and 23.1 and 23.9 and 23.4 and 23.3
resazurin conversion (Supplementary Figure 7D) (HC6X; HC6X AAGLY D40 Remove dox, 100 uM): 24.4 and 24.5 and 24 and 23.7 and 23.5 and 24.2
resazurin conversion (Supplementary Figure 7D) (HC6X; HC6X AAGLY D40 Remove dox, 300 uM): 25.6 and 24.8 (2×) and 25 (2×) and 24.6
resazurin conversion (Supplementary Figure 7D) (HC6X; HC6X AAGLY D40 Remove dox, 600 uM): 26.9 and 26.7 and 26.1 (2×) and 25.7 and 26.3
resazurin conversion (Supplementary Figure 7D) (HC6X; HC6X AAGLY D40 Remove dox, 1200 uM): 28.5 (2×) and 27.6 and 27.4 and 27.9 and 28.4
resazurin conversion (Supplementary Figure 7D) (HepG2; HepG2 AAGLY D30, 3 uM): 98.3 and 94.5 and 92
resazurin conversion (Supplementary Figure 7D) (HepG2; HepG2 AAGLY D30, 5 uM): 68.5 and 110.9 and 79 and 93.8 and 74.1 and 107
resazurin conversion (Supplementary Figure 7D) (HepG2; HepG2 AAGLY D30, 10 uM): 74 and 89.9 and 83.3 and 84.8 and 74.9 and 104.6
resazurin conversion (Supplementary Figure 7D) (HepG2; HepG2 AAGLY D30, 30 uM): 79.1 and 100.2 and 93 and 115.8 and 83.4 and 116.8
resazurin conversion (Supplementary Figure 7D) (HepG2; HepG2 AAGLY D30, 50 uM): 83.1 and 117.7 and 95.2 and 107.4 and 94.4 and 118.1
resazurin conversion (Supplementary Figure 7D) (HepG2; HepG2 AAGLY D30, 100 uM): 64.7 and 70 and 66.6 and 77.3 and 64.4 and 73.3
resazurin conversion (Supplementary Figure 7D) (HepG2; HepG2 AAGLY D30, 300 uM): 29.5 and 32.5 and 30.3 and 31.2 and 30.4 and 32
resazurin conversion (Supplementary Figure 7D) (HepG2; HepG2 AAGLY D30, 600 uM): 29.5 and 33.9 and 30.8 and 32.7 and 30.9 and 34.9
resazurin conversion (Supplementary Figure 7D) (HepG2; HepG2 AAGLY D30, 1200 uM): 31 and 33.3 and 30.9 and 31.3 and 30.2 and 34.1
resazurin conversion (Supplementary Figure 7D) (HepG2; HepG2 CTL D7, 3 uM): 96.5
resazurin conversion (Supplementary Figure 7D) (HepG2; HepG2 CTL D7, 5 uM): 108.7 and 103 and 108 and 101.8 and 110.4 and 108.6
resazurin conversion (Supplementary Figure 7D) (HepG2; HepG2 CTL D7, 10 uM): 100.5 and 91 and 96 and 94.6 and 100.7 and 102
resazurin conversion (Supplementary Figure 7D) (HepG2; HepG2 CTL D7, 30 uM): 107.7 and 102.1 and 104.6 and 106.5 and 111.7 and 103.3
resazurin conversion (Supplementary Figure 7D) (HepG2; HepG2 CTL D7, 50 uM): 106.3 and 99.2 and 103.6 and 101.1 and 106.7 and 102.4
resazurin conversion (Supplementary Figure 7D) (HepG2; HepG2 CTL D7, 100 uM): 21.4 and 9.6 and 9.2 and 17 and 16.3 and 15.4
resazurin conversion (Supplementary Figure 7D) (HepG2; HepG2 CTL D7, 300 uM): 8.5 (3×) and 8.1 and 8.3 and 8.2
resazurin conversion (Supplementary Figure 7D) (HepG2; HepG2 CTL D7, 600 uM): 8.3 and 8 (2×) and 8.4 and 7.9 (2×)
resazurin conversion (Supplementary Figure 7D) (HepG2; HepG2 CTL D7, 1200 uM): 9.4 and 9.5 and 9.7 and 9.2 and 9.3 and 9.1
resazurin conversion (Supplementary Figure 7D) (HLC; HLC AAGLY D40, 5 uM): 153.5 and 121.4 and 146 and 101.6 and 123.2 and 125.5
resazurin conversion (Supplementary Figure 7D) (HLC; HLC AAGLY D40, 10 uM): 135.4 and 92.9 and 151 and 74.5 and 125.5 and 149.7
resazurin conversion (Supplementary Figure 7D) (HLC; HLC AAGLY D40, 30 uM): 16.5 and 14.5 and 14 and 11.9 and 15.8 and 12.7
resazurin conversion (Supplementary Figure 7D) (HLC; HLC AAGLY D40, 50 uM): 11.8 (3×) and 11.4 (2×) and 11.7
resazurin conversion (Supplementary Figure 7D) (HLC; HLC AAGLY D40, 100 uM): 11.9 (2×) and 12.3 and 12.2 and 12.1 (2×)
resazurin conversion (Supplementary Figure 7D) (HLC; HLC AAGLY D40, 300 uM): 12.4 and 12.8 (2×) and 12.6 (2×) and 12.7
resazurin conversion (Supplementary Figure 7D) (HLC; HLC AAGLY D40, 600 uM): 13.8 (2×) and 13.7 and 13.2 and 13.4 and 13.6
resazurin conversion (Supplementary Figure 7D) (HLC; HLC AAGLY D40, 1200 uM): 14.9 and 14.8 and 14.3 and 15 and 14.7 and 14.5
resazurin conversion (Supplementary Figure 7D) (HLC; HLC LDM D40, 3 uM): 124.9 and 86.8 and 81.1 and 83.4
resazurin conversion (Supplementary Figure 7D) (HLC; HLC LDM D40, 5 uM): 112.5 and 109.2 and 104.5 and 65.4 and 87.8 and 121.6
resazurin conversion (Supplementary Figure 7D) (HLC; HLC LDM D40, 10 uM): 119.2 and 88.2 and 119.3 and 84.6 and 119 and 129.3
resazurin conversion (Supplementary Figure 7D) (HLC; HLC LDM D40, 30 uM): 64.9 and 19.9 and 24.5 and 26.5 and 51.6 and 125
resazurin conversion (Supplementary Figure 7D) (HLC; HLC LDM D40, 50 uM): 9.4 and 9.5 and 9.6 and 12.8 and 134 and 114.9
resazurin conversion (Supplementary Figure 7D) (HLC; HLC LDM D40, 100 uM): 9.6 and 9.9 and 9.7 and 9.4 and 10.4 and 10.1
resazurin conversion (Supplementary Figure 7D) (HLC; HLC LDM D40, 300 uM): 10.1 (2×) and 10.3 and 9.6 and 10 and 10.2
resazurin conversion (Supplementary Figure 7D) (HLC; HLC LDM D40, 600 uM): 10.4 and 10.5 and 10.2 (2×) and 10.8 and 11.3
resazurin conversion (Supplementary Figure 7D) (HLC; HLC LDM D40, 1200 uM): 11.2 (3×) and 11.3 and 11.1 and 11.5
